Reference: US11912668B2, “GCN2 and perk kinase inhibitors and methods of use thereof” (Deciphera Pharmaceuticals, LLC, priority 2020, dated 2024)

Key:
[1] = biological target: GCN2 kinase (Homo sapiens (Human), UniProt Q9P2K8); experiment: Biochemical assay for GCN2 (TR-FRET kinase activity assay); conditions: 1 mM ATP, 3-hour incubation
Method: Activity of GCN2 kinase was determined using a TR-FRET kinase activity assay (e.g. Riddle et al. Analytical Biochemistry (2006) 356(1) 108-116). Assays were conducted in 384-well plates (13 μL assay volume) using 2 nM GCN2 (Carna Biosciences), 130 nM GFP-EIf2α (Invitrogen), 0.2 mg/mL E. coli tRNA (sigma) and 1 mM ATP in kinase buffer (Invitrogen). Inhibition of GCN2 was measured by adding serial diluted test compound (final assay concentration of 0.5% DMSO) followed by a 3-hour incubation. Tb-peIF2α (pSer52) antibody (Invitrogen) (2 nM final assay concentration) in kinase buffer containing ETDA (final assay concentration of 20 mM) was added. After a 60 min incubation at room temperature, TR-FRET was monitored using an excitation wavelength of 340 nm and emission wavelengths of 490 nm and 520 nm. The emission ratio (520/490) at each compound concentration of was converted to percent inhibition using controls (i.e. reaction with no test compound and reaction with a known inhibitor) and IC50 values were calculated by fitting a four-parameter sigmoidal curve to the data using Prism (GraphPad software).

[2] = biological target: PERK kinase (Homo sapiens (Human), UniProt Q9NZJ5); experiment: Biochemical assay for PERK (coupled pyruvate kinase/lactate dehydrogenase assay); conditions: 1 mM ATP, rate from 2-3 h time frame
Method: Activity of PERK kinase was determined spectroscopically using a coupled pyruvate kinase/lactate dehydrogenase assay that continuously monitors the ATP hydrolysis-dependent oxidation of NADH (e.g., Schindler et al. Science (2000) 289: 1938-1942). Assays were conducted in 384-well plates (100 μL final volume) using 10 nM PERK (from Beryllium), 0.25 mg/mL Myelin Basic Protein substrate, 1.5 units pyruvate kinase, 2.1 units lactate dehydrogenase, 1 mM phosphoenol pyruvate, 0.28 mM NADH and 1 mM ATP in assay buffer (100 mM Tris, pH 7.5, 15 mM MgCl2, 0.5 mM DTT, 0.004% (w/v) BSA, and 0.004% Triton X-100). Inhibition of PERK was measured by adding serial diluted test compound (final assay concentration of 1% DMSO). A decrease in absorption at 340 nm was monitored continuously for 6 hours at 30° C. on a multi-mode microplate reader (BioTek). The reaction rate was calculated using the 2-3 h time frame. The reaction rate at each concentration of compound was converted to percent inhibition using controls (i.e. reaction with no test compound and reaction with a known inhibitor) and IC50 values were calculated using software routines in Prism (GraphPad software).

Chain of PERK kinase (Q9NZJ5 other isoform, or with tags, fused parts or gaps): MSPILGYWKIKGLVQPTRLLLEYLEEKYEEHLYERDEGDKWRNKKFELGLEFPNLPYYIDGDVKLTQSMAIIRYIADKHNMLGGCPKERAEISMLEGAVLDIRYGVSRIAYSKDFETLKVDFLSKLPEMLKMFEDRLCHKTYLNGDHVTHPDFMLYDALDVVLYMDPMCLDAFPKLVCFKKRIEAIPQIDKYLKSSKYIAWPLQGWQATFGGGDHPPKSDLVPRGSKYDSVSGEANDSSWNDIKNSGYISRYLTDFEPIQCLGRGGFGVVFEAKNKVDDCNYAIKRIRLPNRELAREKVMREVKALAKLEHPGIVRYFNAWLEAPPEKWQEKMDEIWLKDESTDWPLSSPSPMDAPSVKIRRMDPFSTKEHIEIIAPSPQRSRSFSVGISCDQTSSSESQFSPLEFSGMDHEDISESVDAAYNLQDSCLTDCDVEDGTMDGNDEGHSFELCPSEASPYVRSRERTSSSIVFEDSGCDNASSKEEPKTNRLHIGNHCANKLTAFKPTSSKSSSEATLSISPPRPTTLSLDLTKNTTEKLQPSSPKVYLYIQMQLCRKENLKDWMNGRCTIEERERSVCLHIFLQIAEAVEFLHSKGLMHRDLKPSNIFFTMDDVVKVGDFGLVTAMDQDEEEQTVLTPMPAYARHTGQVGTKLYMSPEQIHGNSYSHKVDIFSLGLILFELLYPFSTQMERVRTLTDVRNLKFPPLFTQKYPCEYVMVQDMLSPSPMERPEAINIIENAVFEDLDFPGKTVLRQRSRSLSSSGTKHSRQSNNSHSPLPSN
Chain of GCN2 kinase (Q9P2K8 whole entry): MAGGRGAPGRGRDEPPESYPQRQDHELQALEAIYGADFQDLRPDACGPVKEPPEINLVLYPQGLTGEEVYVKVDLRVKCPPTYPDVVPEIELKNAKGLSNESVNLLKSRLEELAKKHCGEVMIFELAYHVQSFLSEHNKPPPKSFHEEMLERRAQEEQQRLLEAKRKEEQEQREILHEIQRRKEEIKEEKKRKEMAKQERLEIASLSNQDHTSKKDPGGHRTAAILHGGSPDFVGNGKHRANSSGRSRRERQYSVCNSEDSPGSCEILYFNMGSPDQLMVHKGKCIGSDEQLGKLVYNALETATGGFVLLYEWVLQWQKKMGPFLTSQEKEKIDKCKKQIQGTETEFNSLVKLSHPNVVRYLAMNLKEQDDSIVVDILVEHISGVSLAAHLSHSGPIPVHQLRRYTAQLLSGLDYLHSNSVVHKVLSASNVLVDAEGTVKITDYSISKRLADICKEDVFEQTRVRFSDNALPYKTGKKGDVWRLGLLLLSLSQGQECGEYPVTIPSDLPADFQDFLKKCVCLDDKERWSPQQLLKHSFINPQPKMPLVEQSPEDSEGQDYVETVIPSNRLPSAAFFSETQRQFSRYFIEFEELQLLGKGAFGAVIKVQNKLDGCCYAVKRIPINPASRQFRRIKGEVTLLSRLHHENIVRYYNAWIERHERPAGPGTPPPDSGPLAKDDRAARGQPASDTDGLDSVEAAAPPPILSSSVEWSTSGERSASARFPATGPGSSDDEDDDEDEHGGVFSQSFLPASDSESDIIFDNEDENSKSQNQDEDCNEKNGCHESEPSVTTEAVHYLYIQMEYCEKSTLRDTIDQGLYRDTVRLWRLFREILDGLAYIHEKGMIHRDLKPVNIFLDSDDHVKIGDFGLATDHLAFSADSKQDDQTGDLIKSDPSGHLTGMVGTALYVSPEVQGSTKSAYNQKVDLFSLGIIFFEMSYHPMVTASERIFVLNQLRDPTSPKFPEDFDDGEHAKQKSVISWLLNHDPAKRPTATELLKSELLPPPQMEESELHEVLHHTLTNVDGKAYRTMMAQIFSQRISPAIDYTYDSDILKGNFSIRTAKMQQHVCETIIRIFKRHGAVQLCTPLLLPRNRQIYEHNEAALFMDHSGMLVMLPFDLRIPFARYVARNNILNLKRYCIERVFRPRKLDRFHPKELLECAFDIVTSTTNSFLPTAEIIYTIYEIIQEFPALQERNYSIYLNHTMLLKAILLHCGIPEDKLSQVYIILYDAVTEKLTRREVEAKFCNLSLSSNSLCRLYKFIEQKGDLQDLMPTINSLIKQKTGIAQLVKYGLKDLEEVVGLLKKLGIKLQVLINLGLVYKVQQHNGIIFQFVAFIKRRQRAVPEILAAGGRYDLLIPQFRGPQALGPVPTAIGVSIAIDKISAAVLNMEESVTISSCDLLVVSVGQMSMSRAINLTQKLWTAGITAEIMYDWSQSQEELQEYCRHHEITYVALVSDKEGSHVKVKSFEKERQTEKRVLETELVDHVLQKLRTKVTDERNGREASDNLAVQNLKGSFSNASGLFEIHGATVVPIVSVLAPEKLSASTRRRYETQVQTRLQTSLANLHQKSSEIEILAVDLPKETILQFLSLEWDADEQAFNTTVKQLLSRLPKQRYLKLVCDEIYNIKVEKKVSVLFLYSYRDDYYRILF

| Compound | IC50 [1] [nM] | IC50 [2] [nM] |
| --- | --- | --- |
| CNc1ncc2cc(-c3cc(F)cc(NS(=O)(=O)c4cc(Cl)cnc4OC)c3)ccc2n1 [Example 37] | 1000 to 10000 | – |
| CNc1cc2nc(C)c(-c3ccc(F)c(NS(=O)(=O)c4cc(Cl)cnc4OC)c3)cc2cn1 [Example 7] | 500 to 1000 | 100 to 500 |
| CNc1nc2nc(N)ncc2cc1-c1ccnc(NS(=O)(=O)c2cc(Cl)cnc2OC)c1F [Example 155] | 100 to 500 | 100 to 500 |
| CNc1ncc2cc(-c3c(F)ccc(NS(=O)(=O)c4cc(Cl)cnc4OC)c3F)c(NC)nc2n1 [Example 73] | 100 to 500 | 100 to 500 |
| CNc1nc2nc(NC(=O)C3CC3)ncc2cc1-c1cccc(NS(=O)(=O)c2cc(Cl)cnc2OC)c1F [Example 172] | 100 to 500 | – |
| CNc1ncc2cc(-c3ccnc(NS(=O)(=O)c4cc(Cl)cnc4OC)c3F)c(NC)nc2n1 [Example 144] | 100 to 500 | 100 to 500 |
| CNc1ncc2cc(-c3cccc(NS(=O)(=O)c4ccc(C#N)cc4Cl)c3F)c(NC)nc2n1 [Example 141] | 1000 to 10000 | – |
| CNc1ncc2cc(-c3cc(NS(=O)(=O)c4cc(Cl)cnc4OC)ccc3C)c(NC)nc2n1 [Example 24] | 100 to 500 | 100 to 500 |
| CNc1ncc2cc(-c3cccc(NS(=O)(=O)c4cc(Cl)cc(OC)c4Cl)c3F)ccc2n1 [Example 83] | 100 to 500 | ≤ 100 |
| CNc1ncc2cc(-c3cc(NS(=O)(=O)c4cc(Cl)cnc4OC)ccn3)ccc2n1 [Example 163] | 1000 to 10000 | 1000 to 10000 |
| COc1ncc(Cl)cc1S(=O)(=O)Nc1cccc(-c2ccc3cc(N)ncc3c2)c1F [Example 29] | 100 to 500 | ≤ 100 |
| CNc1ncc2cc(-c3cccc(NS(=O)(=O)c4cc(C(C)=O)ccc4Cl)c3F)c(NC)nc2n1 [Example 133] | 100 to 500 | 100 to 500 |
| CNc1ncc2cc(-c3cccc(NS(=O)(=O)c4cc(C#N)ccc4OC)c3F)c(NC)nc2n1 [Example 145] | 100 to 500 | 500 to 1000 |
| CNc1ncc2cc(-c3cc(F)cc(NS(=O)(=O)c4cc(Cl)cnc4OC)c3)c(NC[C@H](C)OC)nc2n1 [Example 108] | 500 to 1000 | 1000 to 10000 |
| CNc1cc2ncc(-c3cc(F)cc(NS(=O)(=O)c4cc(Cl)cnc4OC)c3)cc2cn1 [Example 58] | 1000 to 10000 | 1000 to 10000 |
| CNc1ncc2cc(-c3cccc(NS(=O)(=O)c4cc(Cl)cnc4OC)c3C)ccc2n1 [Example 52] | 100 to 500 | 100 to 500 |
| CNc1ncc2cc(-c3cccc(NS(=O)(=O)c4cc(F)cnc4OC)c3F)c(NC)nc2n1 [Example 122] | ≤ 100 | 100 to 500 |
| CNc1ncc2cc(-c3cccc(NS(=O)(=O)c4cc(Br)cnc4OC)c3F)c(NC)nc2n1 [Example 169] | ≤ 100 | 100 to 500 |
| CNc1ncc2cc(-c3cccc(NS(=O)(=O)c4cc(Cl)c(C)cc4OC)c3F)c(NC)nc2n1 [Example 157] | ≤ 100 | – |
| CNc1ncc2cc(-c3cc(NS(=O)(=O)c4cc(Cl)cnc4OC)ccc3C(F)(F)F)ccc2n1 [Example 76] | 1000 to 10000 | 1000 to 10000 |
| CNc1ncc2cc(-c3cccc(NS(=O)(=O)c4cc(F)c(Br)cc4F)c3F)ccc2n1 [Example 72] | 100 to 500 | 100 to 500 |
| CNc1ncc2cc(-c3cccc(NS(=O)(=O)c4cc(Cl)cnc4OC4CC4)c3F)c(NC)nc2n1 [Example 154] | 100 to 500 | 100 to 500 |
| CNc1ncc2cc(-c3cc(NS(=O)(=O)c4cc(Cl)cnc4OC)cc(F)c3C)c(NC)nc2n1 [Example 34] | ≤ 100 | 100 to 500 |
| CNc1nc2nc(NC3CCCC3)ncc2cc1-c1cccc(NS(=O)(=O)c2cc(Cl)cnc2OC)c1F [Example 119] | ≤ 100 | 100 to 500 |
| CNc1ncc2cc(-c3cc(F)cc(NS(=O)(=O)c4cc(Cl)cnc4OC)c3)c(OC)nc2n1 [Example 103] | 100 to 500 | 100 to 500 |
| CNc1nc2nc(NC3CCC3)ncc2cc1-c1cccc(NS(=O)(=O)c2cc(Cl)cnc2OC)c1F [Example 118] | ≤ 100 | 100 to 500 |
| CNc1ncc2cc(-c3cc(NS(=O)(=O)c4cc(Cl)cnc4OC)ccc3F)ccc2n1 [Example 54] | 500 to 1000 | 100 to 500 |

| Compound | IC50 [1] [nM] | IC50 [2] [nM] |
| --- | --- | --- |
| CNc1cc2nc(C)c(-c3cc(NS(=O)(=O)c4cc(Cl)cnc4OC)c(F)cc3F)cc2cn1 [Example 5, 5-chloro-N-(2,4-difluoro-5-(2-methyl-7-(methylamino)-1,6-naphthyridin-3-yl)phenyl)-2-methoxypyridine-3-sulfonamide] | 100 to 500 | 500 to 1000 |
| CNc1ncc2cc(-c3cc(F)cc(NS(=O)(=O)c4cc(Cl)cnc4OC)c3)c(NCCOC)nc2n1 [Example 105] | 100 to 500 | 1000 to 10000 |
| CNc1ncc2cc(-c3cccc(NS(=O)(=O)c4cc(Cl)cnc4OC4COC4)c3F)c(NC)nc2n1 [Example 125] | 100 to 500 | 500 to 1000 |
| CNc1ncc2cc(-c3cccc(NS(=O)(=O)c4ccc(Cl)cc4OC)c3F)c(NC)nc2n1 [Example 161] | 100 to 500 | 100 to 500 |
| CNc1ncc2cc(-c3cccc(NS(=O)(=O)c4ccc(OC)c(C)c4)c3F)ccc2n1 [Example 91] | 1000 to 10000 | 100 to 500 |
| CNc1cc2ncc(-c3cc(NS(=O)(=O)c4cc(Cl)cnc4OC)ccc3F)cc2cn1 [Example 60] | 100 to 500 | 500 to 1000 |
| COc1cc(OC)c(S(=O)(=O)Nc2cccc(-c3cc4cnc(N)nc4nc3OC)c2F)cc1Cl [Example 126] | 1000 to 10000 | 500 to 1000 |
| CNc1ncc2cc(-c3cc(NS(=O)(=O)c4cc(Cl)cc(Cl)c4)c(F)cc3C)c(C)nc2n1 [Example 75] | 500 to 1000 | 100 to 500 |
| CNc1ncc2cc(-c3cccc(NS(=O)(=O)c4cc(Cl)cnc4OC)c3)ccc2n1 [Example 43] | 1000 to 10000 | 1000 to 10000 |
| CNc1ncc2cc(-c3cccc(NS(=O)(=O)c4cc(OC)c(Cl)cc4OC)c3F)c(NC)nc2n1 [Example 130] | 500 to 1000 | – |
| CNc1nc2nc(NCC(F)(F)F)ncc2cc1-c1cccc(NS(=O)(=O)c2cc(Cl)cnc2OC)c1F [Example 116] | ≤ 100 | 100 to 500 |
| CNc1ncc2cc(-c3cccc(NS(=O)(=O)c4cc(C(C)(C)C)ccc4OC)c3F)c(NC)nc2n1 [Example 134] | 1000 to 10000 | – |
| CNc1ncc2cc(-c3cc(NS(=O)(=O)c4cncc(Cl)c4)c(F)cc3C)c(C)nc2n1 [Example 42] | 1000 to 10000 | 1000 to 10000 |
| CNc1ncc2cc(-c3cccc(NS(=O)(=O)c4cc(Cl)cc(C(N)=O)c4Cl)c3F)c(NC)nc2n1 [Example 112] | 1000 to 10000 | 1000 to 10000 |
| CNc1ncc2cc(-c3cccc(NS(=O)(=O)c4cc(Cl)c[nH]c4=O)c3F)c(NC)nc2n1 [Example 160] | 500 to 1000 | 1000 to 10000 |
| CNc1ncc2cc(-c3cccc(NS(=O)(=O)c4cc(OC)ccc4OC)c3F)c(NC)nc2n1 [Example 140] | 100 to 500 | – |
| CNc1ncc2cc(-c3cc(NS(=O)(=O)c4cc(Cl)cnc4OC)ccc3Cl)ccc2n1 [Example 69] | 100 to 500 | ≤ 100 |
| CNc1ncc2cc(-c3cccc(NS(=O)(=O)c4cc(C#N)cnc4OC)c3F)c(NC)nc2n1 [Example 152] | 100 to 500 | – |
| CNc1ncc2cc(-c3cccc(NS(=O)(=O)c4cccnc4OC)c3F)c(NC)nc2n1 [Example 156] | 100 to 500 | 500 to 1000 |
| CNc1nc2nc(NC(C)(C)C)ncc2cc1-c1cccc(NS(=O)(=O)c2cc(Cl)cnc2OC)c1F [Example 124] | 100 to 500 | – |
| CNc1nc2nc(NC3COC3)ncc2cc1-c1cccc(NS(=O)(=O)c2cc(Cl)cnc2OC)c1F [Example 138] | 100 to 500 | – |
| CNc1ncc2cc(-c3cc(F)cc(NS(=O)(=O)c4cc(Cl)cc(C(C)(C)O)c4Cl)c3)c(NC)nc2n1 [Example 120] | 1000 to 10000 | – |
| CNc1ncc2cc(-c3cccc(NS(=O)(=O)c4cccc(C(C)=O)c4Cl)c3F)c(NC)nc2n1 [Example 146] | 100 to 500 | – |
| CNc1nc2nc(NCCOC)ncc2cc1-c1cccc(NS(=O)(=O)c2cc(Cl)cnc2OC)c1F [Example 139] | 100 to 500 | – |
| CNc1nc2nc(NCC3COC3)ncc2cc1-c1cccc(NS(=O)(=O)c2cc(Cl)cnc2OC)c1F [Example 149] | 500 to 1000 | – |
| CNc1ncc2cc(-c3cccc(NS(=O)(=O)c4cccnc4C(F)(F)F)c3F)c(NC)nc2n1 [Example 131] | 100 to 500 | – |
| CNc1ncc2cc(-c3cccc(NS(=O)(=O)c4cccc(C(=O)OC)c4Cl)c3F)c(NC)nc2n1 [Example 150] | 500 to 1000 | – |
